One test concerns the target T1, BCL-xL R103A/D107A/S110A (Homo sapiens, UniProt Q07817, D107A/R103A/S110A).
T1 construct: BCL-xL (aa 2-212) and BCL-2 (aa 1-207) transformed cells were grown in LB broth; SMT3 (N); made in house; host or cells: E. coli BL21 (DE3) codon plus
Nature of the test: AlphaScreen binary binding, BCL-xL R103A/D107A/S110A. To be noted: mean ± s.d., n=3. How it is done: (§1) To test the binary/ternary binding affinities of compounds to BCL-2/BCL-xL, AlphaScreen displacement binding assay was performed to test the capabilities of testing compounds to displace a Biotin-tagged Bim (Biotin-[…]) or Bad (Biotin-[…]) from BCL-2 or BCL-xL for BCL-2 and BCL-xL binding affinities, respectively. All reagents were diluted in assay buffer of 25 mM HEPES, pH 7.5, 150 mM NaCl, 0.1% BSA, and 0.005% tween 20 prior incubation. To a 96-well PCR plate (VWR, Cat. No. 82006-636) was added 10 μL Biotin-tagged Bim (15 nM for WT or 50 nM for mutants) or Bad (15 nM for WT or 50 nM for mutants), 10 μL series diluted compounds solution (2 or 3 or 4× dilution), and 10 μL self-made 6×His tagged BCL-2 WT or mutants (25 nM WT or 50 nM mutants) or 10 μL self-made BCL-xL WT and mutants (10 nM WT or 50 nM mutants). […] The luminescence signal was detected on a Biotek’s Synergy Neo2 multimode plate reader installed with an AphaScreen filter cube. The Ki values of each compounds were calculated by fitting data into the “Binding-competitive, One site-Fit Ki” function in GraphPad Prism (9.2.0) based on concentrations of Biotin–peptide used and experimentally determined Kd values of each 6×His protein &&&and Biotin–Peptide pair.
A general note: Bead proximity is the source of the signal in Alpha formats.

The target in test [1] is T2, VCB/PROTAC/BCL-2 ternary complex (Homo sapiens, UniProt P10415+P40337).
T2 construct: BCL-xL (aa 2-212) and BCL-2 (aa 1-207) transformed cells were grown in LB broth; GST (on the VCB complex); made in house; host or cells: E. coli BL21 (DE3) codon plus (stated for the BCL-2 construct)
T2 sequence (Q15370 whole entry, the tested form may be a part): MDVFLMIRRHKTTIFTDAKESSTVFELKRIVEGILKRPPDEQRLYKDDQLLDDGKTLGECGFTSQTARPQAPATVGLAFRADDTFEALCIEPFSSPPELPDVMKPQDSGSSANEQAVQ
T2 sequence (Q15369 17-112, further chain): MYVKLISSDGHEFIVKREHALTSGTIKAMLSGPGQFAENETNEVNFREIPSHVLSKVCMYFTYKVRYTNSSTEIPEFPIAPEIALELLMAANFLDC
T2 sequence (P40337 54-213): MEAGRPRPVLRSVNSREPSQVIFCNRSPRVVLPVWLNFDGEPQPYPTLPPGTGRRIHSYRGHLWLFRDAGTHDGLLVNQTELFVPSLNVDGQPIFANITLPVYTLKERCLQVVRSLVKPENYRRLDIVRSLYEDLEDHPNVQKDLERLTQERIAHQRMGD
T2 sequence (P10415 1-207): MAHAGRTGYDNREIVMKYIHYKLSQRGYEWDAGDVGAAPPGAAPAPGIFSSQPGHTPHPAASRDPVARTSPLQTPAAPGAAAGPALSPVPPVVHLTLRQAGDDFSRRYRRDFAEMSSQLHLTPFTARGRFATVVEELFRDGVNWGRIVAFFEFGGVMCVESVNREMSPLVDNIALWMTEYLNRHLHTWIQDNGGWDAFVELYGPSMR
Nature of the test: AlphaLISA ternary complex assay VCB/PROTAC/BCL-2. Format: binding. The conditions noted are these: cell-free AlphaLISA. How it is done: Assays were performed at room temperature. All reagents were diluted in assay buffer of 25 mM HEPES, pH 7.5, 150 mM NaCl, 0.1% BSA, and 0.005% tween 20. To a 96-well PCR plate (VWR, Cat. No. 82006-636) were added 10 μL self-made 6×His tagged BCL-xL (100 nM) or BCL-2 (150 nM), 10 μL series diluted compounds solution (4× dilution) and 10 μL of self-made GST-VCB (100 nM). After incubating at room temperature for 15 min, 5 µL of alpha glutathione-donor beads (160 μg/mL, PerkinElmer, Cat. No. 6765300) and 5 µL of anti-6×His acceptor beads (160 μg/mL, PerkinElmer, Cat. No. AL128M) to each well and incubated for additional 45 min in the dark before being transferred to two adjacent wells (17 µL each) of 384-well white OptiPlate (PerkinElmer, Cat. No. 6008280). The luminescence signal was detected on a Biotek’s Synergy Neo2 multimode plate reader installed with an AphaScreen filter cube. Intensity values were plotted in Graphpad Prism (9.2.0) with PROTAC concentration values represented on a log10 scale.

The next test deals with T3, BCL-2 E114A Q118A (Homo sapiens, UniProt P10415, E114A/Q118A).
T3 construct: BCL-xL (aa 2-212) and BCL-2 (aa 1-207) transformed cells were grown in LB broth; made in house; host or cells: E. coli BL21 (DE3) codon plus
T3 sequence (P10415 1-207 E114A/Q118A): as the sequence (P10415 1-207) above, with E114A, Q118A counted along it
Nature of the test: AlphaScreen binary binding, BCL-2 E114A Q118A. To be noted: mean ± s.d., n=3. How it is done: as §1

The next test deals with T4, HiBiT-BCL-2/HaloTag-VHL (Homo sapiens, UniProt P10415+P40337).
T4 construct: full-length BCL-xL and BCL-2 were expressed in cells for the nanoBRET assay; host or cells: 293T
T4 sequence (P10415 whole entry): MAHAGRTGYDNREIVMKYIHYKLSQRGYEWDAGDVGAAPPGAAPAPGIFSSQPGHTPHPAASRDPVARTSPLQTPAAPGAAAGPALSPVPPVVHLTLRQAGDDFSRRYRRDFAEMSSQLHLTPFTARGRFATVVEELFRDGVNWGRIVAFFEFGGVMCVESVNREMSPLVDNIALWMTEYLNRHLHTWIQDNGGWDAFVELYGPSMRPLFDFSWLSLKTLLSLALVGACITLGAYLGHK
T4 sequence (P40337 whole entry): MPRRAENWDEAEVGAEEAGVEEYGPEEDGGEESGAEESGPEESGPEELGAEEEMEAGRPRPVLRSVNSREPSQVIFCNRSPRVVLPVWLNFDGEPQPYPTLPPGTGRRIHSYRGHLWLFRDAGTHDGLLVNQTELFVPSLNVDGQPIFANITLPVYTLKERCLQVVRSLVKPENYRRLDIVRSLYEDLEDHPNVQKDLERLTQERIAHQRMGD
T4 sequence (Q15370 whole entry, further chain): as the sequence (Q15370 whole entry, the tested form may be a part) above
T4 sequence (Q15369 whole entry, further chain): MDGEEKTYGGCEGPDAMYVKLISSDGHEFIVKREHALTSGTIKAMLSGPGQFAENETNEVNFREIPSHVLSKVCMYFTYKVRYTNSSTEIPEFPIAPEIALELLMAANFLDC
Nature of the test: NanoBRET ternary complex formation assay in 293T cells, HiBiT-BCL-2 and HaloTag-VHL. Format: cell-based. The conditions noted are these: 4 h, MG132 pretreatment. How it is done:
Plasmids HaloTag-VHL (Cat. No. CS1679C155) and CMV HiBiT (Cat. No. CS1956B03) were purchased from Promega. HiBiT-BCL-xL and HiBiT-BCL-2 were constructed previously. 293T cells (8 × 10^5 cells/well in a 6-well plate) were transfected with Lipofectamine (Life Technologies) and 1 μg HaloTag-VHL, 20 ng HiBiT-BCL-xL and 20 ng LgBiT or 1 μg HaloTag-VHL, 20 ng HiBiT-BCL-2 and 20 ng LgBiT. After 48 h, 2 × 10^4 transfected cells were seeded into each well of white 96-well tissue culture plates in Gibco™ Opti-MEM™ I Reduced Serum Medium, No Phenol Red (Cat. No. 11-058-021, Fisher) containing 4% FBS with or without HaloTag NanoBRET 618 Ligand (Cat. No. PRN1662, Promega) and incubated overnight at 37 °C, 5% CO2. […] After treatment, NanoBRET Nano-Glo Substrate (cat. no. N1662, Promega) was added into the medium, and the contents were mixed by shaking the plate for 30 s before measuring donor and acceptor signals on Biotek plate reader. Dual-filtered luminescence was collected with a 450/50 nm bandpass filter (donor, NanoBiT-BCL-XL protein or NanoBiT-BCL-2 protein) and a 610-nm longpass filter (acceptor, HaloTag NanoBRET ligand) using an integration time of 0.5 s. mBRET ratios were calculated following the NanoBRET™ Nano-Glo® Detection System (Cat. No. N1662, Promega).

Test [2] relates to H146 small cell lung cancer cells. Nature of the test: Cytotoxicity in H146 SCLC cells in vitro. Format: cell-based. The conditions noted are these: Figure R4.
The target in the next test is T5, BCL-2 R110A (Homo sapiens, UniProt P10415, R110A).
T5 construct: BCL-xL (aa 2-212) and BCL-2 (aa 1-207) transformed cells were grown in LB broth; made in house; host or cells: E. coli BL21 (DE3) codon plus
T5 sequence (P10415 1-207 R110A): as the sequence (P10415 1-207) above, with R110A counted along it
Nature of the test: AlphaScreen binary binding, BCL-2 R110A. To be noted: mean ± s.d., n=3. How it is done: as §1

Here are results for two molecules from PMC10979003, “Development and crystal structures of a potent second-generation dual degrader of BCL-2 and BCL-xL” (Nature Communications, 2024).

Structures are written as SMILES.

T1 sequence (Q07817 2-212 R103A/D107A/S110A): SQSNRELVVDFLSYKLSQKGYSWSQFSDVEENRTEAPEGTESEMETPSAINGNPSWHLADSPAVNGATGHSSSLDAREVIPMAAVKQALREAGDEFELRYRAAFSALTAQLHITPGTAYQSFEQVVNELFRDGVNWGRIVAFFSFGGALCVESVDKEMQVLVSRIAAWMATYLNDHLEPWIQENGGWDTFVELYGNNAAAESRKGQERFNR

`Cc1ncsc1-c1ccc(C(C)NC(=O)C2CC(O)CN2C(=O)C(NC(=O)CCCCCCC(=O)N2CCN(CC3(C)CCC(c4ccc(Cl)cc4)=C(CN4CCN(c5ccc(C(=O)NS(=O)(=O)c6ccc(NC(CCN7CCOCC7)CSc7ccccc7)c(S(=O)(=O)C(F)(F)F)c6)cc5)CC4)C3)CC2)C(C)(C)C)cc1` (stereo not drawn) [753b]: the Ki – broadly, the dissociation constant of the complex between target and ligand, obtained from inhibition or displacement – on BCL-xL R103A/D107A/S110A was found to be 18.4 ± 2.3 nM.

In the case of `Cc1ncsc1-c1ccc([C@H](C)NC(=O)[C@@H]2C[C@@H](O)CN2C(=O)[C@@H](NC(=O)CN2CCN(CC(=O)N3CCN(C[C@]4(C)CCC(c5ccc(Cl)cc5)=C(CN5CCN(c6ccc(C(=O)NS(=O)(=O)c7ccc(N[C@H](CCN8C[C@@H]9C[C@H]8CO9)CSc8ccccc8)c(S(=O)(=O)C(F)(F)F)c7)cc6)CC5)C4)CC3)CC2)C(C)(C)C)cc1` [WH244], in test [1], the “Ternary complex formation with BCL-2 (comparison with 753b)” value is listed as “tighter complex”. For the same molecule, the Ki on BCL-2 E114A Q118A is 9.6 ± 0.7 nM; at BCL-2 R110A, 8 ± 1.2 nM. Besides, the “Cellular ternary complex formation with BCL-2 (comparison)” value on HiBiT-BCL-2/HaloTag-VHL was “modestly better than 753b”. Also, the “Potency against H146 cells (comparison with ABT263, DT2216, 753b)” value in test [2] is reported as “most potent”.
